Test results: patent US20240208992A1, “MACROCYCLES AS CFTR MODULATORS” (Idorsia Pharmaceuticals Ltd, priority 2021, published 2024)

Biological target: human F508del-CFTR (Homo sapiens, UniProt P13569, DEL508-508)
Experiment: F508del-CFTR cell surface expression (corrector activity), DiscoveRx ß-galactosidase complementation chemiluminescence assay in recombinant U2OS cell line;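 further: U2OS cells co-expressing ProLink-tagged F508del-CFTR and a membrane-anchored enzyme acceptor, where more surface CFTR restores β-galactosidase activity measured by chemiluminescence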
Details: for EC50: EC50, F508del-CFTR cell surface expression, geomean values; for Emax: U2OS, arithmetic mean values
[1] = U2OS cell line, 16h compound incubation
[2] = in relation to the Emax of the corrector lumacaftor (=100%), U2OS cell line, 16h compound incubation
[3] = U2OS cells, 16h compound incubation
[4] = in relation to Emax of corrector lumacaftor (=100%)

human F508del-CFTR, sequence (P13569 with tags, fused parts or gaps DEL508-508): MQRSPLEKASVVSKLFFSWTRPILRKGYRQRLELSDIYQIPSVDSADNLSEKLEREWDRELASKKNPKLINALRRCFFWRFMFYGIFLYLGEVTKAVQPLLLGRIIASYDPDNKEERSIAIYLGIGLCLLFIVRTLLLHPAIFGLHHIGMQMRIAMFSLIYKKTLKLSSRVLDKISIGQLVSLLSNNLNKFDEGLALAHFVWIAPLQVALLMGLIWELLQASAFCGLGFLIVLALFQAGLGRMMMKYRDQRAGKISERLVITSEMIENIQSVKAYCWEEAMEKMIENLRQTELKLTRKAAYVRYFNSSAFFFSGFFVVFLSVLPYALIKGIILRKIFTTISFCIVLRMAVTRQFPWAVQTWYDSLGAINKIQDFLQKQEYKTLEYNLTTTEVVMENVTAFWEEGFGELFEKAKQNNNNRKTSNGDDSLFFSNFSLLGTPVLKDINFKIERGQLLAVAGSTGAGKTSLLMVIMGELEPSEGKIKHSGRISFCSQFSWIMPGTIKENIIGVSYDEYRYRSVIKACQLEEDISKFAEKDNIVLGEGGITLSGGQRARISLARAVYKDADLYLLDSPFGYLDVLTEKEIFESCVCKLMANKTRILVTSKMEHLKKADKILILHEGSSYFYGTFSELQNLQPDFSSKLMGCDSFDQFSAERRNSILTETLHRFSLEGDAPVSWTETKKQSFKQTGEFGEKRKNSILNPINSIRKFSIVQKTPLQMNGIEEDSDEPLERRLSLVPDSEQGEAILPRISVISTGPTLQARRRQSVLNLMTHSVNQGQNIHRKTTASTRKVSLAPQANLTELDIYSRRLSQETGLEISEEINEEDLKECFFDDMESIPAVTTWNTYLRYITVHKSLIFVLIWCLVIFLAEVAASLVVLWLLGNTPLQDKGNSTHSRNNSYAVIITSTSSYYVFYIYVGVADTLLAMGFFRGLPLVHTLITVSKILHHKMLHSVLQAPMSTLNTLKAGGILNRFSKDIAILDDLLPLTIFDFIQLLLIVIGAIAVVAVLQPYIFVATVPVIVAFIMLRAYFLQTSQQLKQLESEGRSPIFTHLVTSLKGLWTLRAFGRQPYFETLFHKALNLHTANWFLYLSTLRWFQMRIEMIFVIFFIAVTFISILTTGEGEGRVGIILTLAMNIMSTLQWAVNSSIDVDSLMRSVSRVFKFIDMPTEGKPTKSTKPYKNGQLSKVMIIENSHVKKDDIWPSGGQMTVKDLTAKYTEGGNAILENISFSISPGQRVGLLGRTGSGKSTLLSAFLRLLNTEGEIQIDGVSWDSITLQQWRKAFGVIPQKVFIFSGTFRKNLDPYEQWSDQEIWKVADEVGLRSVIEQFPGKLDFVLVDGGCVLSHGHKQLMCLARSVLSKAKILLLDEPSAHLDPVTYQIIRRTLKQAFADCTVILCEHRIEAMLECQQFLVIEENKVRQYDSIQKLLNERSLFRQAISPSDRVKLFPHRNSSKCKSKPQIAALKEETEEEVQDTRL

Compound | EC50 [1] [nM] | Emax [2] [%] | EC50 [3] [nM] | Emax [4] [%]
CC(C)C[C@H]1C(=O)N2CCOC[C@@H]2C(=O)N[C@H](Cc2ccccc2)COc2ccc3ccccc3c2C(=O)N[C@H](C(=O)NCCc2ccc(-n3nccn3)cc2)CC(=O)N1C [Example 387, (4aR,7R,18S,22S)-N-(4-(2H-1,2,3-triazol-2-yl)phenethyl)-7-benzyl-22-isobutyl-21-methyl-5,16,20,23-tetraoxo-1,2,4,4a,5,6,7,8,16,17,18,19,20,21,22,23-hexadecahydronaphtho[1,2-p][1,4]oxazino[3,4-f][1]oxa[4,7,10,14]tetraazacycloheptadecine-18-carboxamide] | 342 | 215 | – | –
COc1cccc(CCNC(=O)[C@@H]2CC(=O)N(C)[C@@H](CC(C)C)C(=O)N3CCN(C4CC4)C[C@H]3C(=O)N[C@H](Cc3ccccc3)COc3cnc4ccccc4c3C(=O)N2)c1 [Example 388, (9S,13S,19aS,22R)-22-benzyl-18-cyclopropyl-13-isobutyl-N-(3-methoxyphenethyl)-12-methyl-7,11,14,20-tetraoxo-7,8,9,10,11,12,13,14,17,18,19,19a,20,21,22,23-hexadecahydro-16H-pyrazino[2′,11:6,7][1]oxa[4,7,10,14]tetraazacycloheptadecino[17,16-c]quinoline-9-carboxamide] | 310 | 163 | – | –
COc1cccc(CCNC(=O)[C@@H]2CC(=O)N(C)[C@@H](CC(C)C)C(=O)N3CCN(C4CC4)C[C@@H]3C(=O)N[C@H](Cc3ccccc3)COc3cnc4ccccc4c3C(=O)N2)c1 [Example 389, (9S,13S,19aR,22R)-22-benzyl-18-cyclopropyl-13-isobutyl-N-(3-methoxyphenethyl)-12-methyl-7,11,14,20-tetraoxo-7,8,9,10,11,12,13,14,17,18,19,19a,20,21,22,23-hexadecahydro-16H-pyrazino[2′,1′:6,7][1]oxa[4,7,10,14]tetraazacycloheptadecino[17,16-c]quinoline-9-carboxamide] | 115 | 320 | – | –
COc1cccc(CCNC(=O)[C@@H]2CC(=O)N(C)[C@@H](CC(C)C)C(=O)N3CCN(C4CCC4)C[C@H]3C(=O)N[C@H](Cc3ccccc3)COc3cnc4ccccc4c3C(=O)N2)c1 [Example 390, (9S,13S,19aS,22R)-22-benzyl-18-cyclobutyl-13-isobutyl-N-(3-methoxyphenethyl)-12-methyl-7,11,14,20-tetraoxo-7,8,9,10,11,12,13,14,17,18,19,19a,20,21,22,23-hexadecahydro-16H-pyrazino[2′,11:6,7][1]oxa[4,7,10,14]tetraazacycloheptadecino[17,16-c]quinoline-9-carboxamide] | 269 | 188 | – | –
COc1cccc(CCNC(=O)[C@@H]2CC(=O)N(C)[C@@H](CC(C)C)C(=O)N3CCN(C4CCC4)C[C@@H]3C(=O)N[C@H](Cc3ccccc3)COc3cnc4ccccc4c3C(=O)N2)c1 [Example 391, (9S,13S,19aR,22R)-22-benzyl-18-cyclobutyl-13-isobutyl-N-(3-methoxyphenethyl)-12-methyl-7,11,14,20-tetraoxo-7,8,9,10,11,12,13,14,17,18,19,19a,20,21,22,23-hexadecahydro-16H-pyrazino[2′,1′:6,7][1]oxa[4,7,10,14]tetraazacycloheptadecino[17,16-c]quinoline-9-carboxamide] | 70 | 319 | – | –
CC(C)C[C@H]1C(=O)N2CCN(C3CC3)C[C@H]2C(=O)N[C@H](Cc2ccccc2)COc2cnc3ccccc3c2C(=O)N[C@H](C(=O)NCCc2ccc3c(c2)OCO3)CC(=O)N1C [Example 392, (9S,13S,19aS,22R)-N-(2-(benzo[d][1,3]dioxol-5-yl)ethyl)-22-benzyl-18-cyclopropyl-13-isobutyl-12-methyl-7,11,14,20-tetraoxo-7,8,9,10,11,12,13,14,17,18,19,19a,20,21,22,23-hexadecahydro-16H-pyrazino[2′,1′:6,7][1]oxa[4,7,10,14]tetraazacycloheptadecino[17,16-c]quinoline-9-carboxamide] | 327 | 144 | – | –
CC(C)C[C@H]1C(=O)N2CCN(C3CC3)C[C@@H]2C(=O)N[C@H](Cc2ccccc2)COc2cnc3ccccc3c2C(=O)N[C@H](C(=O)NCCc2ccc3c(c2)OCO3)CC(=O)N1C [Example 393, (9S,13S,19aR,22R)-N-(2-(benzo[d][1,3]dioxol-5-yl)ethyl)-22-benzyl-18-cyclopropyl-13-isobutyl-12-methyl-7,11,14,20-tetraoxo-7,8,9,10,11,12,13,14,17,18,19,19a,20,21,22,23-hexadecahydro-16H-pyrazino[2′,11:6,7][1]oxa[4,7,10,14]tetraazacycloheptadecino[17,16-c]quinoline-9-carboxamide] | 118 | 314 | – | –
CC(C)C[C@H]1C(=O)N2CCN(C3CCC3)C[C@H]2C(=O)N[C@H](Cc2ccccc2)COc2cnc3ccccc3c2C(=O)N[C@H](C(=O)NCCc2ccc3c(c2)OCO3)CC(=O)N1C [Example 394, (9S,13S,19aS,22R)-N-(2-(benzo[d][1,3]dioxol-5-yl)ethyl)-22-benzyl-18-cyclobutyl-13-isobutyl-12-methyl-] | 262 | 151 | – | –
CC(C)C[C@H]1C(=O)N2CCN(C3CCC3)C[C@@H]2C(=O)N[C@H](Cc2ccccc2)COc2cnc3ccccc3c2C(=O)N[C@H](C(=O)NCCc2ccc3c(c2)OCO3)CC(=O)N1C [Example 395, (9S,13S,19aR,22R)-N-(2-(benzo[d][1,3]dioxol-5-yl)ethyl)-22-benzyl-18-cyclobutyl-13-isobutyl-12-methyl-7,11,14,20-tetraoxo-7,8,9,10,11,12,13,14,17,18,19,19a,20,21,22,23-hexadecahydro-16H-pyrazino[2′,11:6,7][1]oxa[4,7,10,14]tetraazacycloheptadecino[17,16-c]quinoline-9-carboxamide] | 110 | 316 | – | –
COCCCN1C(=O)[C@H](CC(C)C)N(C)C(=O)C[C@@H](C(=O)NCCc2cccc(OC)c2)NC(=O)c2c(ccc3ccccc23)OC[C@@H](Cc2ccccc2)NC(=O)C12CC2 [Example 396, (3′S,7′S,13′R)-13′-benzyl-7′-isobutyl-N-(3-methoxyphenethyl)-9′-(3-methoxypropyl)-6′-methyl-1′,5′,8′,11′-tetraoxo-2′,3′,4′,5′,6′,7′,8′,9′,11′,12′,13′,14′-dodecahydro-1′H-spiro[cyclopropane-1,10′-naphtho[1,2-p][1]oxa[4,7,10,14]tetraazacycloheptadecine]-3′-carboxamide] | 241 | 190 | – | –
CCOc1cccc(CCNC(=O)[C@@H]2CC(=O)N(C)[C@@H](CC(C)C)C(=O)N3CCOC[C@@H]3C(=O)N[C@H](Cc3ccccc3)COc3ccc4ccccc4c3C(=O)N2)c1 [Example 397, (4aR,7R,18S,22S)-7-benzyl-N-(3-ethoxyphenethyl)-22-isobutyl-21-methyl-5,16,20,23-tetraoxo-1,2,4,4a,5,6,7,8,16,17,18,19,20,21,22,23-hexadecahydronaphtho[1,2-p][1,4]oxazino[3,4-f][1]oxa[4,7,10,14]tetraazacycloheptadecine-18-carboxamide] | 262 | 207 | – | –
CC(C)C[C@H]1C(=O)N2CCN(C3CC3)C[C@@H]2C(=O)N[C@H](Cc2ccccc2)COc2cnc3ccccc3c2C(=O)N[C@H](C(=O)NCCc2cccc(OC(F)F)c2)CC(=O)N1C [Example 398, (9S,13S,19aR,22R)-22-benzyl-18-cyclopropyl-N-(3-(difluoromethoxy)phenethyl)-13-isobutyl-12-methyl-7,11,14,20-tetraoxo-7,8,9,10,11,12,13,14,17,18,19,19a,20,21,22,23-hexadecahydro-16H-pyrazino[2′,11:6,7][1]oxa[4,7,10,14]tetraazacycloheptadecino[17,16-c]quinoline-9-carboxamide] | – | – | 125 | 280
CC(C)C[C@H]1C(=O)N2CCN(C3CC3)C[C@H]2C(=O)N[C@H](Cc2ccccc2)COc2cnc3ccccc3c2C(=O)N[C@H](C(=O)NCCc2cccc(OC(F)F)c2)CC(=O)N1C [Example 399, (9S,13S,19aS,22R)-22-benzyl-18-cyclopropyl-N-(3-(difluoromethoxy)phenethyl)-13-isobutyl-12-methyl-7,11,14,20-tetraoxo-7,8,9,10,11,12,13,14,17,18,19,19a,20,21,22,23-hexadecahydro-16H-pyrazino[2′,1′:6,7][1]oxa[4,7,10,14]tetraazacycloheptadecino[17,16-c]quinoline-9-carboxamide] | – | – | 506 | 146
CCOc1cccc(CCNC(=O)[C@@H]2CC(=O)N(C)[C@@H](CC(C)C)C(=O)N3CCN(C4CC4)C[C@@H]3C(=O)N[C@H](Cc3ccccc3)COc3cnc4ccccc4c3C(=O)N2)c1 [Example 400, (9S,13S,19aR,22R)-22-benzyl-18-cyclopropyl-N-(3-ethoxyphenethyl)-13-isobutyl-12-methyl-7,11,14,20-tetraoxo-7,8,9,10,11,12,13,14,17,18,19,19a,20,21,22,23-hexadecahydro-16H-pyrazino[2′,11:6,7][1]oxa[4,7,10,14]tetraazacycloheptadecino[17,16-c]quinoline-9-carboxamide] | – | – | 164 | 292
CCOc1cccc(CCNC(=O)[C@@H]2CC(=O)N(C)[C@@H](CC(C)C)C(=O)N3CCN(C4CC4)C[C@H]3C(=O)N[C@H](Cc3ccccc3)COc3cnc4ccccc4c3C(=O)N2)c1 [Example 401, (9S,13S,19aS,22R)-22-benzyl-18-cyclopropyl-N-(3-ethoxyphenethyl)-13-isobutyl-12-methyl-7,11,14,20-tetraoxo-7,8,9,10,11,12,13,14,17,18,19,19a,20,21,22,23-hexadecahydro-16H-pyrazino[2′,1′:6,7][1]oxa[4,7,10,14]tetraazacycloheptadecino[17,16-c]quinoline-9-carboxamide] | – | – | 559 | 189
